The results in this text go back to PubChem BioAssay (NCI).

Assay in all cases: NCI-60 cell line screen, 48 h
Assay [1] relates to TK-10 renal.
The subject of assay [2] is SW-620 colon.
For assay [3], the system named is HCT-15 colon.
Assay [4] deals with A549 NSCLC.
Assay [5] has as its system HL-60(TB) leukemia.
For assay [6], the system named is OVCAR-5 ovarian.
In assay [7] the test system is 786-0 renal.
Assay [8] concerns HCC-2998 colon.
For assay [9], the system named is NCI-H226 lung.
Assay [10] has as its system BT-549 breast.
Assay [11] has as its system HS 578T breast.
Assay [12] has as its system SR leukemia.
The subject of assay [13] is T-47D breast.
Assay [14] relates to MDA-N.

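Each compound was tested at five concentrations against cells in 96-well plates for 48 hours. At the GI50, growth is halved. The concentration for full growth arrest is given as TGI.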

Take `CCOc1ccc(N=Cc2cc(OC)c(OC)c(OC)c2)cc1`: the TGI is greater than 100 µM in assay [1]; 32.1 µM in assay [2]; greater than 100 µM in [3]; greater than 100 µM in assay [4]; greater than 100 µM in [5]; greater than 100 µM in assay [6]. Further, the TGI in assay [7] is greater than 100 µM.
For `CC(C)(C)C1CCC2c3c([nH]c4ccccc34)C3C(=O)N(c4ccc(Br)cc4)C(=O)C3C2C1` (stereo not given), the TGI in assay [8] is 11.9 µM; in assay [1], 42 µM; in [2] it was 49.4 µM; in assay [3] it was 36.3 µM; in assay [9], 36.1 µM; in assay [4] it was 47.5 µM. The TGI in [5] was determined as 29.5 µM; in assay [6], 56.5 µM; in assay [7], 37.3 µM.
As to `CC(O[Si](C)(C)C(C)(C)C)[C@H](NC(=O)OCC(Cl)(Cl)Cl)C(=O)O` (stereo not given in full), the TGI in assay [8], in [10], in assay [1], in assay [2], in assay [3] and in assay [9] was greater than 100 µM in each case. For the same molecule, the TGI in assay [11], in [4], in [12], in [13], in assay [5] and in assay [6] was greater than 100 µM in each case. In addition, in assay [7], the TGI was greater than 100 µM.
With `COc1ccc(C2=C(OC(C)=O)c3cccn3-c3ccccc3S2)cc1`, the TGI in assay [8], in [1], in assay [2], in assay [3], in assay [4] and in assay [12] was greater than 10 µM throughout. Also, the TGI in assay [13] is greater than 10 µM; in assay [5] it was 4.57 µM; in assay [14], 1.44 µM; in assay [7], greater than 10 µM.
As to `CCN(CC)CC(C)(C)C(=O)/C=C/c1ccc(C)cc1`, the TGI amounted to 21.6 µM in assay [8]; 27.9 µM in assay [1]; 15.7 µM in assay [2]; 14.8 µM in assay [3]; 42.7 µM in assay [4]; 26.8 µM in assay [12]. The TGI in assay [6] stood at 27.6 µM; in assay [7], 23.2 µM.
Regarding `Nc1nc(Cl)c2ncn(Cc3ccccc3CCl)c2n1`, the TGI in [8] is 6.57 µM; in assay [10], 22.9 µM; in assay [1], 36.7 µM; in [2], 11.8 µM; in [3] it was 7.45 µM; in assay [9] it was 9.95 µM. Further, the TGI in [11] was 77.6 µM; in [4], 53.1 µM; in assay [12], greater than 100 µM; in [13], 83.9 µM; in assay [5] it was greater than 100 µM; in assay [6], 39.8 µM. For the same molecule, the TGI in [7] turned out to be 52 µM.
For the molecule `O=[N+]([O-])c1cc(Cl)ccc1S(=O)(=O)c1ccccc1`, the TGI in [8], in assay [10], in assay [1], in [2], in assay [3] and in assay [9] was greater than 100 µM each time. The TGI in [11], in assay [4], in [13], in assay [5], in assay [6] and in assay [7] was greater than 100 µM each time.
Take `OCCOCCO[P+]1(OCCOCCO)n2c3ccc2C(c2ccccc2)=C2C=CC(=N2)C(c2ccccc2)=c2ccc(n21)=C(c1ccccc1)C1=NC(=C3c2ccccc2)C=C1`: the TGI came out at 0.321 µM in assay [8]; 1.74 µM in [1]; 1.31 µM in [2]; 3.21 µM in assay [3]; 0.379 µM in assay [11]; 3.29 µM in assay [4]. Besides, the TGI in assay [13] is 2.04 µM; in [5] it was 0.18 µM; in assay [14], 0.121 µM; in [6], 1.95 µM; in [7], 1.51 µM.
In the case of `N#Cc1c(N2CCOCC2)ncn(-c2ccccc2)c1=O`, the TGI in assay [8], in assay [10], in [2], in assay [3], in assay [9] and in assay [4] was greater than 100 µM each time. For the same molecule, the TGI in [12], in assay [13], in [5], in assay [14], in assay [6] and in assay [7] was greater than 100 µM in each case.
In the case of `CC(C)CCNC(=O)c1ccc(CNC(=O)/C=C/c2ccc(-c3ccccc3[N+](=O)[O-])o2)cc1`, the TGI in assay [8] is greater than 100 µM; in [2], greater than 100 µM; in [3], greater than 100 µM; in [9] it was 62.9 µM; in assay [4], greater than 100 µM; in assay [12], greater than 100 µM. The TGI in assay [13] was 63.5 µM; in assay [5], greater than 100 µM; in assay [14], greater than 100 µM; in assay [6] it was greater than 100 µM; in [7], greater than 100 µM.
In the case of `CN1N=C(c2ccncc2)OC1c1ccc(Cl)c(Cl)c1` (stereo not given), the TGI in [8], in assay [1], in assay [2], in assay [3], in [9] and in assay [11] was greater than 100 µM throughout. Further, the TGI in assay [4], in assay [13], in [5], in [14], in [6] and in assay [7] was greater than 100 µM each time.
For `Cc1[nH]n(-c2ccccc2)c(=S)c1C(=O)c1ccccc1`, the TGI in assay [8] is 77.1 µM; in assay [1], 94.4 µM; in assay [2], greater than 100 µM; in [3], greater than 100 µM; in [4] it was greater than 100 µM; in assay [5] it was greater than 100 µM. Moreover, the TGI in assay [6] is greater than 100 µM.
As for `CCC(C)(C)NC1=C(NC(C)=O)C(=O)c2ccccc2C1=O`, the TGI in assay [8], in assay [1], in assay [2], in assay [3], in assay [9] and in assay [4] was greater than 75 µM in each case. Besides, the figures for the TGI in assay [12], in [5] and in assay [7] were greater than 75 µM, 43 µM and greater than 75 µM, respectively.
Take `C[n+]1c2ccccc2c(NC(CCC(N)=O)C(=O)O)c2ccccc21` (stereo not given): the TGI in assay [8], in assay [1], in assay [2], in [3], in assay [9] and in [4] was greater than 100 µM throughout. In addition, the TGI in assay [12], in assay [5], in assay [6] and in [7] was greater than 100 µM throughout.
Take `CCNC1CC(C(C)(C)NCC)CC=C1C` (stereo not given): the TGI in [8], in [10], in assay [1], in assay [2], in [3] and in assay [4] was greater than 100 µM each time. For the same molecule, the TGI in assay [12], in assay [13], in assay [5], in assay [14], in assay [6] and in assay [7] was greater than 100 µM in each case.
Take `Cc1ccc(N2C(=O)/C(=c3\s/c(=C(/N)O)c(=N)n3-c3ccccc3)SC2=S)cc1`: the TGI in assay [8], in assay [1], in assay [2], in assay [9], in [4] and in assay [5] was greater than 100 µM each time. The molecule further came in with a TGI in assay [6] greater than 100 µM.
Regarding `CNC(=O)N(CCC#N)CCN(CCN(C(=O)NC)c1ccccc1)C(=O)NC`, the TGI in assay [8], in assay [10], in [1], in assay [2], in assay [3] and in assay [9] was greater than 100 µM throughout. Further, the TGI in [4], in [12], in assay [13], in assay [14], in [6] and in assay [7] was greater than 100 µM each time.
`Nc1nc(=O)n(C2OC(CO)C(O)C2O)cc1F` (stereo not given): the TGI in assay [8] was greater than 100 µM; in assay [2], greater than 100 µM; in assay [3], greater than 100 µM; in assay [9], greater than 100 µM; in assay [4], greater than 100 µM; in assay [6], greater than 81.3 µM.
Consider `Clc1ccc2c(NCCNc3nc(-c4ccccc4)cc(-c4ccccc4)n3)ccnc2c1`, for which the GI50 is 1.57 µM in assay [10]; 1.86 µM in [1]; 1.99 µM in [11]; 2 µM in [4]; 1.5 µM in assay [13]; 1.68 µM in assay [6]. The TGI in assay [10] is 3.2 µM; in [1], 3.41 µM; in [11], 4.56 µM; in assay [4], 3.78 µM; in assay [13] it was 3.47 µM; in [6], 3.17 µM.
On to `CC1=NN(C(=O)c2ccc(Cl)cc2)C(=O)/C1=C/c1cccc(O)c1`, for which the TGI in [8], in assay [1], in assay [2], in assay [3], in assay [9] and in [4] was greater than 100 µM in each case. In addition, the TGI in assay [5], in assay [6] and in assay [7] was greater than 100 µM each time.
As to `Cc1ccc2c(c1)NC(=O)C(N=[N+]=[N-])(c1ccccc1)C2=O` (stereo not given), the TGI was greater than 100 µM in assay [8]; greater than 100 µM in [1]; greater than 100 µM in [2]; 52.2 µM in assay [3]; greater than 100 µM in [4]; 56.7 µM in assay [12]. The values for the TGI in assay [5], in assay [6] and in [7] were 37.5 µM, greater than 100 µM and greater than 100 µM, respectively.
In the case of `c1ccc2cc3n[se]nc3cc2c1`, the TGI in assay [8], in assay [1], in assay [2], in assay [3], in assay [4] and in assay [5] was greater than 100 µM throughout. The molecule further showed a TGI in assay [6] greater than 100 µM.
With `CC(=O)CN=C(C)NNc1ccc([N+](=O)[O-])cc1[N+](=O)[O-]`, the TGI in [8], in assay [2], in assay [3], in assay [9], in [11] and in assay [4] was greater than 100 µM throughout. In addition, the TGI in assay [12], in assay [13], in [14], in assay [6] and in assay [7] was greater than 100 µM throughout.
As for `CN1c2ccccc2C2c3c(O)ccc(O)c3C=C([N+](=O)[O-])C21` (stereo not given), the TGI is 2.8 µM in assay [8]; 13.6 µM in assay [10]; 23.3 µM in assay [1]; 6.41 µM in assay [3]; greater than 92.9 µM in [9]; 3.57 µM in assay [4]. Moreover, the TGI was greater than 24.8 µM in assay [12]; greater than 100 µM in [13]; 3.17 µM in assay [5]; 1.5 µM in [14]; 5.87 µM in assay [6]; 2.13 µM in assay [7].
For `COc1cc(OC)c(/C=N/N=C(\N)NO)c(OC)c1`, the TGI in assay [8], in assay [1], in assay [2], in [3], in assay [9] and in [11] was greater than 100 µM each time. Besides, the TGI in assay [4], in [12], in assay [13], in [14], in assay [6] and in [7] was greater than 100 µM throughout.
On to `Cc1c2n(c3ccccc13)CC1C2N(C)OC1(C)C` (stereo not given), for which the TGI in [8], in [3], in [9], in [4], in assay [12] and in assay [6] was greater than 100 µM in each case. This molecule also displayed a TGI in [7] greater than 100 µM.
